According to patent US20090162305A1, “FORMULATIONS OF LOW OIL CONTENT COMPRISING […] DERIVATIVES” (SYMRISE GmbH & Co. KG, priority 2006, published 2009):

Test: ABTS assay, cell-free in vitro test of antioxidative capacity
Assay type: biochemical
Excerpt: ABTS assay is a cell-free in vitro test for evaluation of antioxidative capacity (literature: Re R, Pellegrini N, Proteggente A, Pannala A, Yang M, Rice-Evans C. 1999. “Antioxidant activity applying an improved ABTS radical cation decolorization assay”; Free Radic. Biol. Med. 26: 1231-7). The assay uses the intrinsic colouration of a solution prepared with the cationic radical 2,2′-azinobis(3-ethylbenzothiazoline-6-sulfonic acid) (ABTS+) and potassium persulfate, which is decolourized by addition of antioxidants (reduction of the cationic radical). This decolouration can be measured photometrically at 734 nm. The test is carried out in 96-well microtitre plates. […] All the ABTS test results result from two independent experiments and are presented as means with the associated deviation from the mean.
In order to test whether the antioxidative activity of styrylresorcinol (formula 3; CARN 85-27-8; 4-(1-phenylethyl)-1,3-dihydroxybenzene) is adversely influenced by the presence of significant amounts of oily phase, in a further experiment the antioxidative capacity of two products comprising 30 percent by weight of 2-ethylhexyl isononanoate (INCI Ethylhexyl Isononanoate; product A) and, respectively, 5 percent by weight of 2-ethylhexyl isononanoate (INCI Ethylhexyl Isononanoate; product B) was determined with the aid of ABTS assay.

In the case of `CC(c1ccccc1)c1ccc(O)cc1O` (stereo not drawn) [Styrylresorcinol, 4-(1-phenylethyl)-1,3-dihydroxybenzene], the “reduction in the antioxidative capacity compared with the oil-free reference sample” value (5% of oily phase) is reported as 1.6%, the “deterioration in the antioxidative capacity compared with the oil-free reference sample” value (30% of oily phase, 0.01% styrylresorcinol) is reported as 13.5% and the “antioxidative capacity greater than that of the reference substance alpha-tocopherol, factor” value (ABTS, versus alpha-tocopherol) is reported as about 2. The antioxidative capacity (ethanolic solution containing 0.01% styrylresorcinol with 30% of oily phase (product A)) was 79.4%, the antioxidative capacity (mixture according to the invention comprising only 5% of oily phase (product B)) was 91.35 and the antioxidative capacity (oil-free reference sample containing only 0.01% styrylresorcinol (product C)) was 92.9%.
